# Results taken from patent US6773721B1, “Osmotic caplet” (ALZA Corporation, priority 1992, dated 2004).
# Test: Osmotic pressure of saturated solutions by vapor pressure osmometer
# Type: physicochemical
# Conditions: saturated solution in water at 37° C.; Model 320B Vapor Pressure Osmometer
# Description: The osmagent is initially present in excess and it can be any physical form such as particle, crystal, pellet, tablet, strip, film or granule. […] In the table, the osmotic pressure π, is in atmospheres, ATM. The osmotic pressure is measured in a commercially available osmometer that measures the vapor pressure difference between pure water and the solution to be analyzed, and according to standard thermodynamic principles, the vapor pressure ratio is converted into osmotic pressure difference. […] The osmometer used for the present measurements is identified as Model 320B, Vapor Pressure Osmometer, manufactured by Hewlett Packard Co., Avondale, Pa.
row,Compound,OSMOTIC PRESSURE [ATM]
1,O=C(CO)[C@@H](O)[C@H](O)[C@H](O)CO [Fructose],355
2,OC[C@@H](O)[C@@H](O)[C@H](O)[C@H](O)CO [Mannitol],38
3,[Cl-].[K+] [Potassium Chloride],245
4,O=S(=O)([O-])[O-].[K+].[K+] [Potassium Sulfate],39
5,[Cl-].[Na+] [Sodium Chloride],356
6,O=P([O-])([O-])O.[Na+].[Na+] [Sodium Phosphate Dibasic Anhydrous],29
7,O.O.O.O.O.O.O.O=P([O-])([O-])O.[Na+].[Na+] [Sodium Phosphate Dibasic.7H2O],31
8,O.O.O.O.O.O.O.O.O.O.O.O.O=P([O-])([O-])O.[Na+].[Na+] [Sodium Phosphate Dibasic.12H2O],31
9,O.O.O.O.O.O.O.O.O.O.O.O.O=P([O-])([O-])[O-].[Na+].[Na+].[Na+] [Sodium Phosphate Tribasic.12H2O],36
10,Sodium Phosphate Monobasic.H2O,28
